Laboratory results reported in patent US20060188573A1, “Composite materials and particles” (priority 2003, published 2006).

Tested on: blood
Assay: Blood compatibility: coagulation
Settings: 4.0 ml blood added, circulating at 37 degrees C. for 60 minutes in heparin-coated tubes; duplicate
Experimental: The lipid/polymer hybrid particles have been characterized with respect to coagulation and hemolyse. Briefly, the experiments were carried out as follows:
Coagulation: Solvent/water mixture, with the same ratio used for particle formation, was used as negative control. Other samples were pure polymer, pure lipid, lipid/polymer composite particles and Taxol. Taxol was used as positive control. All experiments were carried out in dublicate.4.0 ml blood were added to each sample before the samples were circulating, at 37 degrees C. for 60 minutes, in tubes with the inside coated with heparin.

In the case of `CCCCCCCC/C=C\CCCCCCCC(=O)OCC(O)CO` (stereo not shown) [pure lipid, glyceryl-mono-oleate], the coagulation is reported as “no coagulation”.
